From patent US20240368534A1 (priority 2021, published 2024) come the findings set out here.

Read-outs that look alike come from different tables or passages of the source.

The subject of experiment [1] is OPH-E. coli/S. oneidensis mixtures. Type of experiment: cell-based. The conditions noted are these: for anodic current: 20 μM; for charge produced / charge relative to cell only baseline: at 24 hours.
Experiment [2] has the same test system. Type of experiment: cell-based.
Experiment [3] concerns the target T1, organophosphate hydrolase (OPH) displayed on E. coli (Brevundimonas diminuta, UniProt P0A434).
T1 construct: expressed in transfected cells; host or cells: E. coli BL21 (DE3) carrying pSKB3-INPNC-OPH, IPTG-induced, lyophilized whole cells
In kind it is biochemical, Pseudomonas diminuta.

The subject of experiment [4] is transcription factor DmpR. In kind it is cell-based, Pseudomonas spp. CF600.
In another experiment the test system is engineered S. oneidensis. Type of experiment: cell-based.
The subject of experiment [5] is transcription factor DmpR. Type of experiment: cell-based, Pseudomonas spp. CF600. This is another data set of the same source.

Regarding `CCOP(=S)(OCC)Oc1ccc([N+](=O)[O-])cc1` [parathion], in experiment [1], the total charge accumulated is 1.04±0.66 mA*h and the “anodic current” value is “increase in anodic current”. Moreover, the “increase in GFP fluorescence” value in experiment [2] is reported as 58 fold.
`COP(=O)(OC)Oc1ccc([N+](=O)[O-])cc1` [paraoxon-methyl]: in experiment [3], the degradation rate entry was “significantly enhanced degradation rates” and the “rate of p-NP production” value is “very slow rates of p-NP production”. In experiment [1], the total charge accumulated turned out to be 1.03±0.31 mA*h and the “anodic current” value is given as “increase in anodic current”. The “increase in GFP fluorescence” value in experiment [2] is recorded as 48 fold.
With `CCOP(=O)(OCC)Oc1ccc([N+](=O)[O-])cc1` [paraoxon], in experiment [3] (read-out: Michaelis constant (KM)), the Michaelis-Menten constant (Km) is 198 ± 81.7 µM. Also, in experiment [1], the charge accumulation turned out to be 0.140±0.02 mA*h, the “limit of detection of the sensor” value was 0.15 µM, the total charge accumulated was 1.64±0.18 mA*h and the “anodic current” value is “increase in anodic current”. In experiment [1] (1 μM), the charge produced was found to be 0.101±0.017 mA*h and the “charge relative to cell only baseline” value turned out to be 1.7 times. In experiment [1] (5 μM), the charge produced is 0.180±0.018 mA*h and the “charge relative to cell only baseline” value is listed as “approximately three times higher”. The “GFP fluorescence response” value in experiment [4] is on record as “No such increase in the fluorescence”. Also, in the experiment with engineered S. oneidensis, the “anodic current” value was “did not yield a considerable current” and the total charge worked out at 0.21±0.02 mA*h.
With `Oc1ccc(O)cc1` [hydroquinone], the “GFP fluorescence response” value in experiment [4] was “very low fluorescence”.
With `CCOC(=O)CC(SP(=O)(OC)OC)C(=O)OCC` (stereo not shown) [malaoxon], in experiment [1], the total charge accumulated was found to be 0.068±0.006 mA*h and the “anodic current” value is “no significant current”. Besides, the “GFP expression” value in experiment [2] is “GFP expression was not observed”.
In the case of `O=[N+]([O-])c1ccc(O)cc1` [p-NP, p-nitrophenol], in experiment [5], the “GFP expression response” value is reported as “logarithmic increase in GFP expression”. Also, in experiment [4], the “increase in GFP fluorescence” value is 54 fold and the “lowest concentration at which fluorescence observed” value stood at 6.25 µM. Moreover, in the experiment with engineered S. oneidensis, the “anodic current” value is listed as “continuous increase in anodic current” and the total charge worked out at 1.32±0.48 mA*h.
As for `Cc1ccc(O)c(O)c1` [4-methylcatechol], the “GFP fluorescence response” value in experiment [4] is given as “very low fluorescence”.
As for `NCCc1ccc(O)c(O)c1` [dopamine], the “GFP fluorescence response” value in experiment [4] is reported as “very low fluorescence”.

One may read the Km as the substrate concentration at which the rate is half of its maximum.
